In the CheMixHub viscosity set:

Assay: xn = mol fraction of the nth substance listed

C1COCCO1 + CO
Conditions | viscosity [mPa·s]
293.15 K, 101 kPa, x2 = 0.2465 | 0.9992
293.15 K, 101 kPa, x2 = 0.3957 | 0.8686
293.15 K, 101 kPa, x2 = 0.5458 | 0.7639
293.15 K, 101 kPa, x2 = 0.6558 | 0.6972
293.15 K, 101 kPa, x2 = 0.7331 | 0.6579
293.15 K, 101 kPa, x2 = 0.8062 | 0.6268
293.15 K, 101 kPa, x2 = 0.8648 | 0.6069
293.15 K, 101 kPa, x2 = 0.9198 | 0.5935
293.15 K, 101 kPa, x2 = 0.9635 | 0.5877
293.15 K, 101.3 kPa, x2 = 0.1975 | 1.045
293.15 K, 101.3 kPa, x2 = 0.3447 | 0.9049
293.15 K, 101.3 kPa, x2 = 0.4743 | 0.8065
293.15 K, 101.3 kPa, x2 = 0.5836 | 0.7327
293.15 K, 101.3 kPa, x2 = 0.6782 | 0.6805
293.15 K, 101.3 kPa, x2 = 0.7588 | 0.6441
293.15 K, 101.3 kPa, x2 = 0.8312 | 0.6135
293.15 K, 101.3 kPa, x2 = 0.8936 | 0.5998
293.15 K, 101.3 kPa, x2 = 0.9503 | 0.59
298.15 K, 101 kPa, x1 = 0.3 | 0.6148
298.15 K, 101 kPa, x2 = 0.8474 | 0.5684
298.15 K, 101 kPa, x2 = 0.9275 | 0.5488
298.15 K, 101 kPa, x2 = 0.9636 | 0.5589
298.15 K, 101.3 kPa, x2 = 0.1975 | 0.9612
298.15 K, 101.3 kPa, x2 = 0.3447 | 0.8454
298.15 K, 101.3 kPa, x2 = 0.4743 | 0.7506
298.15 K, 101.3 kPa, x2 = 0.5836 | 0.6825
298.15 K, 101.3 kPa, x2 = 0.6782 | 0.6352
298.15 K, 101.3 kPa, x2 = 0.7588 | 0.6047
298.15 K, 101.3 kPa, x2 = 0.8312 | 0.578
298.15 K, 101.3 kPa, x2 = 0.9503 | 0.5443
303.15 K, 101 kPa, x2 = 0.2218 | 0.8759
303.15 K, 101 kPa, x2 = 0.4075 | 0.7425
303.15 K, 101 kPa, x2 = 0.5478 | 0.6573
303.15 K, 101 kPa, x2 = 0.6544 | 0.6056
303.15 K, 101 kPa, x2 = 0.7387 | 0.5694
303.15 K, 101 kPa, x2 = 0.8089 | 0.5455
303.15 K, 101 kPa, x2 = 0.8164 | 0.5434
303.15 K, 101 kPa, x2 = 0.8671 | 0.5288
303.15 K, 101 kPa, x2 = 0.9617 | 0.5105
303.15 K, 101.3 kPa, x2 = 0.1975 | 0.8931
303.15 K, 101.3 kPa, x2 = 0.3447 | 0.778
303.15 K, 101.3 kPa, x2 = 0.4743 | 0.6981
303.15 K, 101.3 kPa, x2 = 0.5836 | 0.6349
303.15 K, 101.3 kPa, x2 = 0.6782 | 0.5919
303.15 K, 101.3 kPa, x2 = 0.7588 | 0.5568
303.15 K, 101.3 kPa, x2 = 0.8312 | 0.5316
303.15 K, 101.3 kPa, x2 = 0.8936 | 0.5157
303.15 K, 101.3 kPa, x2 = 0.9503 | 0.5063
303.15 K, 101.33 kPa, x2 = 0.225 | 0.877
303.15 K, 101.33 kPa, x2 = 0.4115 | 0.733
303.15 K, 101.33 kPa, x2 = 0.662 | 0.603
303.15 K, 101.33 kPa, x2 = 0.923 | 0.52
308.15 K, 101.3 kPa, x2 = 0.1975 | 0.831
308.15 K, 101.3 kPa, x2 = 0.3447 | 0.7262
308.15 K, 101.3 kPa, x2 = 0.4743 | 0.6503
308.15 K, 101.3 kPa, x2 = 0.5836 | 0.593
308.15 K, 101.3 kPa, x2 = 0.6782 | 0.5507
308.15 K, 101.3 kPa, x2 = 0.7588 | 0.52
308.15 K, 101.3 kPa, x2 = 0.8312 | 0.497
308.15 K, 101.3 kPa, x2 = 0.9503 | 0.4725
313.15 K, 101 kPa, x2 = 0.2218 | 0.7572
313.15 K, 101 kPa, x2 = 0.2465 | 0.7401
313.15 K, 101 kPa, x2 = 0.4075 | 0.6436
313.15 K, 101 kPa, x2 = 0.5458 | 0.5763
313.15 K, 101 kPa, x2 = 0.6544 | 0.5294
313.15 K, 101 kPa, x2 = 0.7387 | 0.499
313.15 K, 101 kPa, x2 = 0.8089 | 0.4782
313.15 K, 101 kPa, x2 = 0.8671 | 0.4627
313.15 K, 101 kPa, x2 = 0.9635 | 0.446
323.15 K, 101 kPa, x2 = 0.2465 | 0.6508
323.15 K, 101 kPa, x2 = 0.3957 | 0.5742
323.15 K, 101 kPa, x2 = 0.5458 | 0.5093
323.15 K, 101 kPa, x2 = 0.6558 | 0.4701
323.15 K, 101 kPa, x2 = 0.7331 | 0.4449
323.15 K, 101 kPa, x2 = 0.8062 | 0.4249
323.15 K, 101 kPa, x2 = 0.8648 | 0.4107
323.15 K, 101 kPa, x2 = 0.9198 | 0.4003
323.15 K, 101 kPa, x2 = 0.9635 | 0.3949

C1COCCO1 + CC(C)O
viscosity [mPa·s]
Conditions | 298.15 K | 303.15 K | 308.15 K | 313.15 K
101 kPa, x1 = 0.4 | 1.078 | – | – | –
101 kPa, x2 = 0.1382 | – | 0.9888 | 0.9165 | –
101 kPa, x2 = 0.2768 | – | 0.9414 | 0.8803 | –
101 kPa, x2 = 0.3911 | – | 0.9353 | 0.8656 | –
101 kPa, x2 = 0.4934 | – | 0.9403 | 0.8625 | –
101 kPa, x2 = 0.5928 | – | 0.9543 | 0.8778 | –
101 kPa, x2 = 0.6977 | – | 1.014 | 0.9221 | –
101 kPa, x2 = 0.7841 | – | 1.112 | 1.012 | –
101 kPa, x2 = 0.8535 | – | 1.259 | 1.128 | –
101 kPa, x2 = 0.929 | – | 1.47 | 1.308 | –
101.3 kPa, x1 = 0.038 | 1.821 | 1.578 | 1.38 | 1.218
101.3 kPa, x1 = 0.1103 | 1.479 | 1.312 | 1.17 | 1.039
101.3 kPa, x1 = 0.213 | 1.224 | 1.099 | 0.9913 | 0.8984
101.3 kPa, x1 = 0.3316 | 1.075 | 0.9775 | 0.887 | 0.8129
101.3 kPa, x1 = 0.3634 | 1.055 | 0.9613 | 0.8738 | 0.8044
101.3 kPa, x1 = 0.4318 | 1.014 | 0.9242 | 0.8492 | 0.7791
101.3 kPa, x1 = 0.5184 | 0.9926 | 0.91 | 0.835 | 0.7724
101.3 kPa, x1 = 0.6312 | 0.9873 | 0.9117 | 0.837 | 0.7769
101.3 kPa, x1 = 0.6592 | 0.9898 | 0.9161 | 0.8392 | 0.778
101.3 kPa, x1 = 0.787 | 1.048 | 0.9473 | 0.8747 | 0.8157
101.3 kPa, x1 = 0.891 | 1.101 | 1.01 | 0.9326 | 0.8715
101.3 kPa, x1 = 0.935 | 1.131 | 1.048 | 0.9724 | 0.8943

CCCCn1cc[n+](C)c1.O=S(=O)([N-]S(=O)(=O)C(F)(F)F)C(F)(F)F + CCCCn1cc[n+](C)c1.F[P-](F)(F)(F)(F)F
Conditions | viscosity [mPa·s]
318.15 K, 100 kPa, x1 = 0.25 | 58.45

CCCC#N + CCC(C)O
viscosity [mPa·s], 101.33 kPa
Conditions | x2 = 0.1016 | x2 = 0.1946 | x2 = 0.2965 | x2 = 0.3938 | x2 = 0.4949 | x2 = 0.5951 | x2 = 0.6966 | x2 = 0.7945 | x2 = 0.8999
298.15 K | 0.572 | 0.605 | 0.652 | 0.717 | 0.811 | 0.945 | 1.141 | 1.435 | 1.982
308.15 K | 0.508 | 0.532 | 0.567 | 0.616 | 0.685 | 0.782 | 0.921 | 1.123 | 1.478
318.15 K | 0.454 | 0.472 | 0.499 | 0.536 | 0.59 | 0.658 | 0.758 | 0.898 | 1.135

BrCCBr + Cc1ccc(C)cc1
101.33 kPa
Conditions | viscosity [mPa·s]
298.15 K, x1 = 0.1435 | 0.6686
298.15 K, x1 = 0.2783 | 0.7322
298.15 K, x1 = 0.391 | 0.7899
298.15 K, x1 = 0.4898 | 0.887
298.15 K, x1 = 0.5921 | 1.001
298.15 K, x1 = 0.6809 | 1.082
298.15 K, x1 = 0.7685 | 1.169
298.15 K, x1 = 0.8555 | 1.309
298.15 K, x1 = 0.9211 | 1.459
308.15 K, x1 = 0.1371 | 0.5822
308.15 K, x1 = 0.2566 | 0.6257
308.15 K, x1 = 0.3821 | 0.6992
308.15 K, x1 = 0.4845 | 0.7526
308.15 K, x1 = 0.5874 | 0.8292
308.15 K, x1 = 0.6798 | 0.9216
308.15 K, x1 = 0.7647 | 1.018
308.15 K, x1 = 0.8499 | 1.154
308.15 K, x1 = 0.9258 | 1.273

[Br-].[NH4+] + O
298.15 K, 101 kPa
Conditions | viscosity [mPa·s]
x1 = 0.0089 | 0.8738
x1 = 0.0177 | 0.8563
x1 = 0.0348 | 0.8265

CCCC#N + CC(C)CO
viscosity [mPa·s], 101.33 kPa
Conditions | x2 = 0.0997 | x2 = 0.2 | x2 = 0.2986 | x2 = 0.3982 | x2 = 0.4962 | x2 = 0.5918 | x2 = 0.7022 | x2 = 0.8004 | x2 = 0.8991
298.15 K | 0.582 | 0.626 | 0.69 | 0.778 | 0.895 | 1.051 | 1.315 | 1.672 | 2.273
308.15 K | 0.516 | 0.551 | 0.6 | 0.667 | 0.756 | 0.874 | 1.069 | 1.323 | 1.742
318.15 K | 0.462 | 0.489 | 0.528 | 0.58 | 0.648 | 0.737 | 0.881 | 1.066 | 1.363
